Holding throughout (type): binding, BALB/c mice
One experiment relates to H4 1.3. Description: ELISA inhibition by singly modified Cs-derivatives, McAb H4 1.3. Particulars: group II; D-Lys^8 -Cs-BSA coating. Here is the method: (§1) A second ELISA Procedure used conjugates of D-Lys^8 -Cs-BSA and Thr^2 -Cs-BSA for coating (Queeniaux et al., 1987b). An indirect detection system consisting of rabbit anti-mouse Ig followed by alkaline phosphates-conjugated goat anti-rabbit IgG was performed as previously described (Queenlaux et al., 1987b).
(§2) The binding of the 22 McAbs to these two Cs-BSA conjugates was also found to correlate well with their fine specificity patterns, as characterized with a set of 28-36 Cs derivatives. Typical ELISA curves showing McAb binding either to D-Lys^8 -Cs-BSA (panel A) or to Thr^2 -Ca-BSA (panel B) and inhibited by Cs or Cs derivatives are shown in FIGS. 8A-8B, D-Lys^8 -Cs-BSA was subsequently used for coating in the inhibition experiments, except for those McAbs binding selectively to Thr^2 -Cs-BSA (see Table 4 and FIGS. 7A-7C). An example of the binding of 26 Cs derivatives by McAbs belonging to each of the five specificity groups mentioned above is reported in Table 5. The results are expressed as the difference of IC50 (in log10) between the Cs derivatives and Cs. All Cs-derivatives used in this study were selected for having a conserved peptide ring conformation compared with CsA (as determined in NMR or X-ray diffraction).
(In an ELISA, binding on a coated surface is turned into a signal by an enzyme label.)

For the next experiment, the system named is G7 1.1. Description: ELISA inhibition by singly modified Cs-derivatives, McAb G7 1.1. The following applies: group I; McAb binds selectively to Thr^2 -Cs-BSA coating. Here is the method:
as §1, §2

For a further experiment, the system named is B11 1.4. In words: ELISA inhibition by singly modified Cs-derivatives, McAb B11 1.4. The following applies: group IV; D-Lys^8 -Cs-BSA coating. Here is the method: as §1, §2
The next experiment concerns C4 2.2. In words: ELISA inhibition by singly modified Cs-derivatives, McAb C4 2.2. The following applies: group V; McAb binds selectively to Thr^2 -Cs-BSA coating. Here is the method: as §1, §2
In a further experiment the test system is H6 1.5. In words: ELISA inhibition by singly modified Cs-derivatives, McAb H6 1.5. The following applies: group III; D-Lys^8 -Cs-BSA coating. Here is the method:
as §1, §2

Each structure is given as a SMILES string.

Take `C/C=C/C[C@@H](C)[C@@H](O)[C@H]1C(=O)N[C@@H](CC)C(=O)N(C)CC(=O)N(C)[C@@H](CC(C)C)C(=O)N[C@@H](CCSC)C(=O)N(C)[C@@H](CC(C)C)C(=O)N[C@@H](C)C(=O)N[C@H](C)C(=O)N(C)[C@@H](CC(C)C)C(=O)N(C)[C@@H](CC(C)C)C(=O)N(C)[C@@H](C(C)C)C(=O)N1C` [Val^5 Met]: the “log10 difference in the concentrations of Cs-derivatives and unmodified Cs required to achieve 50% inhibition in ELISA, McAb H4 1.3” value in the experiment with H4 1.3 is 1.5 log10. The “log10 difference in the concentrations of Cs-derivatives and unmodified Cs required to achieve 50% inhibition in ELISA, McAb G7 1.1” value in the experiment with G7 1.1 is reported as under 0.0 log10. In the experiment with B11 1.4, the “log10 difference in the concentrations of Cs-derivatives and unmodified Cs required to achieve 50% inhibition in ELISA, McAb B11 1.4” value was 0.0 log10. Further, the “log10 difference in the concentrations of Cs-derivatives and unmodified Cs required to achieve 50% inhibition in ELISA, McAb C4 2.2” value in the experiment on C4 2.2 is listed as under 0.0 log10. The “log10 difference in the concentrations of Cs-derivatives and unmodified Cs required to achieve 50% inhibition in ELISA, McAb H6 1.5” value in the experiment on H6 1.5 is on record as under 0.0 log10.
With `C/C=C/C[C@@H](C)[C@@H](O)[C@H]1C(=O)N[C@@H](CC)C(=O)N(C)CC(=O)N(C)[C@@H](CC(C)C)C(=O)N[C@@H](C(C)C)C(=O)N(C)[C@@H](Cc2ccccc2)C(=O)N[C@@H](C)C(=O)N[C@H](C)C(=O)N(C)[C@@H](CC(C)C)C(=O)N(C)[C@@H](CC(C)C)C(=O)N(C)[C@@H](C(C)C)C(=O)N1C` [MeLeu^6 MePhe], the “log10 difference in the concentrations of Cs-derivatives and unmodified Cs required to achieve 50% inhibition in ELISA, McAb H4 1.3” value in the experiment on H4 1.3 is reported as 1.2 log10. The “log10 difference in the concentrations of Cs-derivatives and unmodified Cs required to achieve 50% inhibition in ELISA, McAb G7 1.1” value in the experiment with G7 1.1 was determined as 0.1 log10. Besides, in the experiment with B11 1.4, the “log10 difference in the concentrations of Cs-derivatives and unmodified Cs required to achieve 50% inhibition in ELISA, McAb B11 1.4” value was 0.0 log10. Further, the “log10 difference in the concentrations of Cs-derivatives and unmodified Cs required to achieve 50% inhibition in ELISA, McAb C4 2.2” value in the experiment on C4 2.2 is reported as 1.3 log10. The “log10 difference in the concentrations of Cs-derivatives and unmodified Cs required to achieve 50% inhibition in ELISA, McAb H6 1.5” value with H6 1.5 was found to be 1.7 log10.
As for `C/C=C/C[C@@H](C)[C@@H](O)[C@H]1C(=O)N[C@@H](CC)C(=O)N(C)CC(=O)N(C)[C@@H](CC(C)C)C(=O)N(C)[C@@H](CC(C)C)C(=O)N(C)[C@@H](CC(C)C)C(=O)N[C@@H](C)C(=O)N[C@H](C)C(=O)N(C)[C@@H](CC(C)C)C(=O)N(C)[C@@H](CC(C)C)C(=O)N(C)[C@@H](C(C)C)C(=O)N1C` [Val^5 MeLeu], the “log10 difference in the concentrations of Cs-derivatives and unmodified Cs required to achieve 50% inhibition in ELISA, McAb H4 1.3” value in the experiment on H4 1.3 stood at 1.2 log10. The “log10 difference in the concentrations of Cs-derivatives and unmodified Cs required to achieve 50% inhibition in ELISA, McAb G7 1.1” value with G7 1.1 was found to be 1.0 log10. Besides, the “log10 difference in the concentrations of Cs-derivatives and unmodified Cs required to achieve 50% inhibition in ELISA, McAb B11 1.4” value in the experiment on B11 1.4 is on record as 0.0 log10. Further, the “log10 difference in the concentrations of Cs-derivatives and unmodified Cs required to achieve 50% inhibition in ELISA, McAb C4 2.2” value with C4 2.2 was under 0.0 log10. In addition, the “log10 difference in the concentrations of Cs-derivatives and unmodified Cs required to achieve 50% inhibition in ELISA, McAb H6 1.5” value with H6 1.5 came to 0.3 log10.
In the same order, the values of `C/C=C/C[C@@H](C)[C@@H](O)[C@H]1C(=O)N[C@@H](CC)C(=O)N(C)CC(=O)N(C)[C@@H](CC(C)C)C(=O)N[C@@H](C(C)C)C(=O)N(C)[C@@H](CC(C)C)C(=O)N[C@@H](C)C(=O)N[C@H]([C@H](C)O)C(=O)N(C)[C@@H](CC(C)C)C(=O)N(C)[C@@H](CC(C)C)C(=O)N(C)[C@@H](C(C)C)C(=O)N1C` [D-Ala^8 D-Thr] are 0.0 log10, over 2.0 log10, 0.4 log10, 1.2 log10 and under 0.0 log10.
For `C/C=C/C[C@@H](C)[C@@H](O)[C@H]1C(=O)N[C@@H](CC)C(=O)N(C)CC(=O)N(C)[C@@H](CC(C)C)C(=O)N[C@@H](C(C)C)C(=O)N(C)[C@@H](CC(C)C)C(=O)N[C@@H](C)C(=O)N[C@H](C)C(=O)N(C)[C@@H](C)C(=O)N(C)[C@@H](CC(C)C)C(=O)N(C)[C@@H](C(C)C)C(=O)N1C` [MeLeu^9 MeAla], the “log10 difference in the concentrations of Cs-derivatives and unmodified Cs required to achieve 50% inhibition in ELISA, McAb H4 1.3” value with H4 1.3 was under 0.0 log10. Moreover, in the experiment on G7 1.1, the “log10 difference in the concentrations of Cs-derivatives and unmodified Cs required to achieve 50% inhibition in ELISA, McAb G7 1.1” value was found to be 1.4 log10. In addition, the “log10 difference in the concentrations of Cs-derivatives and unmodified Cs required to achieve 50% inhibition in ELISA, McAb B11 1.4” value in the experiment on B11 1.4 was 1.7 log10. Also, the “log10 difference in the concentrations of Cs-derivatives and unmodified Cs required to achieve 50% inhibition in ELISA, McAb C4 2.2” value in the experiment on C4 2.2 came out at 1.9 log10. Further, the “log10 difference in the concentrations of Cs-derivatives and unmodified Cs required to achieve 50% inhibition in ELISA, McAb H6 1.5” value in the experiment on H6 1.5 is 0.0 log10.

Source of the values: patent publication US6177253A, “Screening methods for the identification of anti-HIV compounds employing a cyclosporine-specific monoclonal antibody that cross-reacts with HIV-1 p24” (priority 1998, dated 2001).
